Experiment [1] deals with hydroxymethyldihydropteridine pyrophosphokinase (HMPPS) (Escherichia coli, UniProt P26281). Briefly: Inhibition of the enzymes forming dihydropteroic acid (HMPPS ATP-γ-P32 transfer assay; synthetase pAB-C14 assay). Format: biochemical. The following applies: E. coli extract enzymes; result of tests (a) HMPPS and (b) synthetase. The procedure:
The inhibiting activity against HMPPS of a selected compound of formula (I) can, for instance, be tested by monitoring the transfer of the terminal phosphate of adenosinetriphosphate/ATP-γ-P^32 to `dihydropteridine`. […] Such inhibition may, for instance, be easily and simply carried out by incubating an extract of E. coli with pAB-7-C^14, ATP, Mg and `dihydropteridine`. The formation of the dihydropteroate-C^14 can be quantitatively assayed after separating the unreacted pAB substrate, for instance by chromatography. […] Preferably the value is 25μM or less, such as in the range between 2 to 12μM. Generally a value below 7μM is desirable. […]
(a) An assay for HMPPS was developed in which the transfer of the terminal phosphate of ATP-γ-P^32 to Pt could be monitored and correlated with the amount of inhibition of HMPPS by the compound under test. […]
Tubes 1 to 9 containing the amounts of components shown in the Table, were filled up to 200μl with distilled water, incubated for 60 minutes at 37° C and then chilled on ice. […] The charcoal and the filter were then radioactively counted. […]
(b) The activity of the test compound of formula (I) against `synthetase` was determined as follows, by monitoring the formation of dihydropteroate C^14. […]

For experiment [2], the system named is Staphylococcus aureus. As to the kind of experiment: Inhibitor zone test, pteridine in agar with TMP and/or SMX in the well. Format: cell-based. The following applies: conclusion from Table 3. The procedure:
The pteridine was included in a soya peptone medium of low thymidine content (Wellcotest Sensitivity test agar) contained in a Petri dish and the other component(s) added to the well resulting from the removal of a small plug from the medium. The surface of the medium was inoculated with the test organism and then incubated. The amount of zone inhibition is shown in Table 3, wherein the numbers represent the complete zone inhibition (i.e. the number of […] from the edge of the well after about 6 × magnification) and the figures in parenthesis include the zones of partial inhibition.

The test system of experiment [3] is Cl. perfringens. Particulars: British Pat. No. 1303171 and Application No. 36289/70; cited from earlier work.
Experiment [4] deals with Derm. dermatonomous. The following applies: British Pat. No. 1303171 and Application No. 36289/70; cited from earlier work.

The IC50 is the concentration that gives 50% inhibition.

hydroxymethyldihydropteridine pyrophosphokinase (HMPPS), sequence (P26281 whole entry): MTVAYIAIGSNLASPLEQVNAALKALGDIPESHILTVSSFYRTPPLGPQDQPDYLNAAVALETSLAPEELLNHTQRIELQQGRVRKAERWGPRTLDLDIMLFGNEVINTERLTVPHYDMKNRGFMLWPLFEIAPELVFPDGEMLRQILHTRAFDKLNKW

Turning to `CCC1(CC)Nc2nc(N)nc(O)c2N=C1CO` [R=CH2 OH R^1 =R^2 =Et, 2-amino-4-hydroxy-6-hydroxymethyl-7,7-diethyl-7,8-dihydropteridine], the IC50 in experiment [1] is 2.1 µM. Further, the “synergistic activity with TMP and/or SMX” value in experiment [2] was “synergism with TMP and SMX alone and multiple synergism with both”.
On to `CC1=Nc2c(nc(N)[nH]c2=O)NC1(C)C` [2-amino-4-hyroxy-6-methyl-7,7-dimethyl-7,8-dihydropteridine], for which the bacteriostatic activity entry in experiment [3] and in experiment [4] was “particularly effective” throughout.
As to `CC1(C)Nc2nc(N)nc(O)c2N=C1CO` [2-amino-4-hydroxy-6-hydroxymethyl-7,7-dimethyl-7,8-dihydropteridine], the bacteriostatic activity result in experiment [3] and in experiment [4] was “particularly effective” throughout.

The values above are taken from patent publication US4073786A, “2-Amino-4-hydroxy-6-hydroxymethyl-7,7-diethyl-7,8-dihydropteridine and the 7-spirocyclohexyl analogue thereof” (Burroughs Wellcome Co., priority 1975, dated 1978).
